Results as given in ChEMBL document CHEMBL3832542, “DailyMed|setid=00f30ef0-e65c-4b41-ad1b-afaab9bcfc7d | CLONIDINE- clonidine patch, extended release|Lake Erie Medical DBA Quality Care Products LLC”.

Assays:
[1] = Pharmacokinetic parameters for Clonidine evaluated following oral or intravenous administration of Clonidine to subjects.; conditions: human, in vivo
[2] = Steady-state pharmacokinetic parameters for Clonidine evaluated following transdermal administration of 0.1, 0,2 and 0.3 mg doses of Clonidine to the upper outer arm for 7 days.; conditions: human, in vivo, topical or ocular

CL renal [1]: 102 mL/min
Vd [1]: 197 L
clearance [1]: 177 mL/min
half-life [1]: 12 to 16 h
bioavailability at 168 h [2]: 60%
half-life at 168 h [2]: 24 h
Compound: Clc1cccc(Cl)c1N=C1NCCN1 [CLONIDINE]
